In ChEMBL document CHEMBL1135109, “Discovery and initial SAR of imidazoquinoxalines as inhibitors of the Src-family kinase p56(Lck)” (Bioorg Med Chem Lett, 2002) one finds IC50 data, which are given here for 45 compounds.

Molecules are shown by their SMILES.

The target in assay [1] is Tyrosine-protein kinase Lck (Homo sapiens, UniProt P06239).
Description: Inhibitory activity against recombinant p56 Lck tyrosine kinase expressed as a His-tagged protein in insect cells using a baculovirus expression system
The test system of the next assay is T-cell. Kind of assay: Compound was tested for potency against anti-CD3/anti-CD28 induced PBL proliferation of human peripheral blood T-cells.

Sequence of Tyrosine-protein kinase Lck (P06239 whole entry): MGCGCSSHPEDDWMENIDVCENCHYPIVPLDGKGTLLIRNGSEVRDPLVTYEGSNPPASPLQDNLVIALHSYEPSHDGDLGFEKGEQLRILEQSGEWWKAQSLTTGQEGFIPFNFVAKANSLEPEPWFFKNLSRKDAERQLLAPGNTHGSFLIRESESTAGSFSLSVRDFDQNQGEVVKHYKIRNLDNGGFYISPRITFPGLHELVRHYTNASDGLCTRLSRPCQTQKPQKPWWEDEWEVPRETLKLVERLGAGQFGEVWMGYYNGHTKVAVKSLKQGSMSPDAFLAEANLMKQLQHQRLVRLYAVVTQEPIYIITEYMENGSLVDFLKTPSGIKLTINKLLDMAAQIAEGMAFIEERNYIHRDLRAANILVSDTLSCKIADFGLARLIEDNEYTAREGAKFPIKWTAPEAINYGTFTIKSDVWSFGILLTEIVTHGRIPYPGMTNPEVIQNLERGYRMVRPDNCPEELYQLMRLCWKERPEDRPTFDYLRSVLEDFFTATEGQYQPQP

One may read the IC50 as the concentration needed to halve the response being measured. Low readings indicate inhibition by little substance, high ones a need for much substance. For the compound `c1cncc(Nc2nc3ccccc3n3cncc23)c1`, the 50% inhibitory concentration (IC50) in assay [1] came out at 820 nM. Compound `Brc1ccccc1Sc1nc2ccccc2n2cncc12` came in with an IC50 in assay [1] above 12500 nM.

Regarding `c1ccc2c(c1)nc(NC1CCCCC1)c1cncn12`, the IC50 in assay [1] is 3170 nM. `Fc1cccc(Nc2nc3ccccc3n3cncc23)c1` displayed an IC50 in assay [1] of 1330 nM.

In assay [1], `Brc1ccccc1Oc1nc2ccccc2n2cncc12` showed a half-maximal inhibitory concentration (IC50) of 3700 nM. Take `COc1ccc2c(nc(Nc3c(C)cccc3Cl)c3cnc(CCCO)n32)c1OC`: the IC50 in assay [1] is 69 nM. On to `Cc1ccc(Nc2nc3ccccc3n3cncc23)c(Cl)c1`, for which 240 nM corresponded to half-maximal inhibition in assay [1] (IC50).

In assay [1], `O=C(Nc1nc2ccccc2n2cncc12)c1c(Cl)cccc1Cl` gave an IC50 of 810 nM. In the case of `COc1ccc2c(nc(Nc3c(C)cccc3Cl)c3cnc(C(C)O)n32)c1OC` (stereo not drawn), the IC50 in assay [1] was 53 nM. Same read-out and setting: the value for `COc1ccc2c(nc(Nc3c(C)cccc3Cl)c3cnc(C)n32)c1OC` was 7.4 nM; that for `COc1ccc2c(nc(Nc3c(C)cccc3Cl)c3cnc(C(O)C(C)C)n32)c1OC` (stereo not drawn) was 238 nM. Still for that read-out and setting: the value for `Clc1cccc(Cl)c1Nc1nc2ccccc2n2cncc12` was 9 nM; that for `O=[N+]([O-])c1ccccc1Nc1nc2ccccc2n2cncc12` was above 12500 nM.

`Brc1cccc(Br)c1Nc1nc2ccccc2n2cncc12` yielded an IC50 in assay [1] of 50 nM. Turning to `COc1ccc2c(nc(Nc3c(C)cccc3Cl)c3cnc(CO)n32)c1OC`, in assay [1], half-maximal inhibition (IC50) was put at 6.2 nM. Regarding `Cc1cccc(C)c1Nc1nc2ccccc2n2cncc12`, the IC50 in assay [1] was found to be 16 nM; in the assay on T-cell, 3 µM. Consider `Brc1ccccc1Nc1nc2ccccc2n2cnc(-c3ccccc3)c12`, for which, in assay [1], the IC50 was above 12500 nM.

In assay [1], `COc1ccc2c(nc(Nc3c(C)cccc3Cl)c3cnc(C=O)n32)c1OC` gave an IC50 of 10 nM. The same measure, in the same setting: in the case of `Fc1cccc(F)c1Nc1nc2ccccc2n2cncc12` it was 360 nM. Take `Cc1cc(C)c(Nc2nc3ccccc3n3cncc23)c(Cl)c1`: the IC50 in assay [1] was found to be 30 nM. Still for that read-out and setting: in the case of `Cc1cc(C)c(Nc2nc3ccccc3n3cncc23)c(C)c1` it was 40 nM; in that of `Brc1ccc(Nc2nc3ccccc3n3cncc23)cc1`, above 12500 nM; in that of `CN(c1ccccc1Cl)c1nc2ccccc2n2cncc12`, above 12500 nM. On the same count and under the same terms, the value for `CCCCCCNc1nc2ccccc2n2cncc12` was above 12500 nM; that for `CCNC(=O)c1ncc2c(Nc3c(C)cccc3Cl)nc3c(OC)c(OC)ccc3n12` was 665 nM.

In assay [1], `Fc1ccccc1Nc1nc2ccccc2n2cncc12` showed an IC50 of 390 nM. Still for that read-out and setting: in the case of `CCc1cccc(CC)c1Nc1nc2ccccc2n2cncc12` it was 1690 nM. `COc1ccc2c(nc(Nc3c(C)cccc3Cl)c3cnc(/C=N/O)n32)c1OC` displayed an IC50 in assay [1] of 4.3 nM. The same measure, in the same setting: the value for `CCCNc1nc2ccccc2n2cncc12` was 2680 nM. Still for that read-out and setting: the value for `c1ccc(Nc2nc3ccccc3n3cncc23)cc1` was 890 nM; that for `Cc1ccccc1C(=O)Nc1nc2ccccc2n2cncc12` was above 12500 nM; that for `c1ccc2c(c1)nc(Nc1ccncc1)c1cncn12` was above 12500 nM. Still for that read-out and setting: the value for `Cc1ncn2c1c(Nc1ccccc1Cl)nc1ccccc12` was 30 nM. In the case of `COc1ccc2c(nc(Nc3c(C)cccc3Cl)c3cncn32)c1OC`, the IC50 in assay [1] stood at 2 nM; in the assay on T-cell it was 0.67 µM. Taken in the same sequence, the figures for `Cc1cccc(Cl)c1Nc1nc2ccccc2n2cncc12` were 9 nM and 7 µM. On to `Brc1ccccc1Nc1nc2ccccc2n2ccnc12`, for which, in assay [1], the IC50 is above 50000 nM. As to `Clc1ccccc1Nc1nc2ccccc2n2cncc12`, in assay [1], half-maximal inhibition (IC50) required 60 nM. In turn, `COc1ccccc1Nc1nc2ccccc2n2cncc12` showed a concentration for half-maximal inhibition (IC50) in assay [1] of 5520 nM. Still for that read-out and setting: in the case of `Clc1cccc(CCNc2nc3ccccc3n3cncc23)c1` it was 4390 nM. On the same count and under the same terms, the value for `c1ccc(CNc2nc3ccccc3n3cncc23)cc1` was above 12500 nM. On to `Brc1ccccc1Nc1nc2ccccc2n2cncc12`, for which the 50% inhibitory concentration (IC50) in the assay on T-cell came out at 17 µM. In turn, `Cc1cccc(C)c1-c1nc2ccccc2n2cncc12` came in with an IC50 in assay [1] above 12500 nM. The same measure, in the same setting: in the case of `Cc1ncc2c(Nc3ccccc3Br)nc3ccccc3n12` it was 180 nM; in that of `c1ccc2c(c1)nc(NC1CC1)c1cncn12`, 3170 nM. Same read-out and setting: the value for `O=C(Nc1nc2ccccc2n2cncc12)c1ccccc1Br` was 60 nM.
